Source: ChEMBL document CHEMBL1148617, “Design, synthesis, and structure-activity relationships of 1-,3-,8-, and 9-substituted-9-deazaxanthines at the human A2B adenosine receptor” (J Med Chem, 2006)

How the values were obtained:
[1] = target: T1, Adenosine receptor A2b (Homo sapiens) (UniProt P29275); assay: Displacement of [3H]DPCPX from recombinant human adenosine A2B receptor expressed in HEK293 cells at 0.1 uM; format: cell-based
T1 sequence (whole entry): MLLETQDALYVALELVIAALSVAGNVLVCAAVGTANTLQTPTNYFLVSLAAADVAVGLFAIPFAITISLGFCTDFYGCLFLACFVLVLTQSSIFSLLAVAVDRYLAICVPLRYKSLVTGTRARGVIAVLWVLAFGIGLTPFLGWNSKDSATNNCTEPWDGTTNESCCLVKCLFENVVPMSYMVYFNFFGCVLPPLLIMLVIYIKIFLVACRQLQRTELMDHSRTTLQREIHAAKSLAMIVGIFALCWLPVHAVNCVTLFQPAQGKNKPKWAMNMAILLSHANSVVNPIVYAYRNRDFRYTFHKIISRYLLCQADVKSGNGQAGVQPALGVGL

Adenosine receptor A2a [2] = target: T2, Adenosine receptor A2a (Homo sapiens, UniProt P29274)
T2 sequence (P29274 whole entry): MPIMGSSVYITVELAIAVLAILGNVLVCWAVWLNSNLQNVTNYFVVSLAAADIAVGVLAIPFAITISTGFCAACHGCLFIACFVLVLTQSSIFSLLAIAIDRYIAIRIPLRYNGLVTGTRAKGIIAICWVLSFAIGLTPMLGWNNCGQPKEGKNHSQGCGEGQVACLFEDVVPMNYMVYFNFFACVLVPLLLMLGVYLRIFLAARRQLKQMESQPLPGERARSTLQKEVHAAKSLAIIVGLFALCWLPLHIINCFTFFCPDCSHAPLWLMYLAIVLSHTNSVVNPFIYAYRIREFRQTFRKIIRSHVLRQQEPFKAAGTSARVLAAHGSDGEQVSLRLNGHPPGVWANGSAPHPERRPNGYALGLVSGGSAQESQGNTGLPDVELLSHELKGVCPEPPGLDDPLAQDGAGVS
Description: Binding affinity to recombinant human adenosine A2A receptor

Adenosine receptor A2b = target: T3, Adenosine receptor A2b (Homo sapiens, UniProt P29275)
T3 sequence (P29275 whole entry): T1 sequence (whole entry)
Description: Binding affinity to recombinant human adenosine A2B receptor

[3] = target: T1, Adenosine receptor A2b (Homo sapiens); assay: Displacement of [3H]DPCPX from recombinant human adenosine A2B receptor expressed in HEK293 cells at 0.01 uM
Adenosine receptor A2a [4] = target: T2, Adenosine receptor A2a; assay: Displacement of [3H]ZM-241385 from recombinant human adenosine A2A receptor expressed in HeLa cells at 0.1 uM

| Compound | inhibition [1] [%] | Ki (Adenosine receptor A2a [2]) [µM] | Ki (Adenosine receptor A2b) [µM] | inhibition [3] [%] | inhibition (Adenosine receptor A2a [4]) [%] |
| --- | --- | --- | --- | --- | --- |
| CCCn1c(=O)c2nc(-c3cc(OCC(=O)c4ccc(C(=O)OCC)cc4)nn3C)[nH]c2n(CCC)c1=O | – | 0.0324 | > 1 | – | – |
| CCCn1c(=O)c2nc(-c3ccc(OCC(=O)c4ccc(I)cc4)cn3)[nH]c2n(CCC)c1=O | – | 0.011 | > 1 | – | – |
| CCCn1c(=O)c2[nH]c(-c3cc(OCC(=O)c4ccc(C)cc4)nn3C)nc2n(CCC)c1=O | – | 0.0191 | > 1 | – | – |
| CCCn1c(=O)c2[nH]c(-c3ccc(OCC(=O)Nc4ccc(I)cc4)cc3)nc2n(CCC)c1=O | – | 5.89 | – | – | – |
| CCCn1c(=O)c2nc(-c3cc(OCC(=O)c4ccc(C(C)=O)cc4)nn3C)[nH]c2n(CCC)c1=O | – | 0.0871 | > 1 | – | – |
| CCCn1c(=O)c2nc(-c3cc(OCC(=O)c4ccc(Br)cc4)n(C)n3)[nH]c2n(CCC)c1=O | – | 0.0933 | > 1 | – | – |
| CCCn1c(=O)c2[nH]c(-c3cc(OCC(=O)c4ccc(Br)cc4)nn3C)nc2n(CCC)c1=O | – | 0.0251 | > 1 | – | – |
| CCCn1c(=O)c2[nH]c(-c3ccc(OCC(=O)Nc4cc(C)cc(C)n4)cc3)cc2n(CCC)c1=O | 53 | – | – | 12 | 27 |
| CCCn1c(=O)c2nc(-c3cc(OCC(=O)c4ccc(F)cc4)n(C)n3)[nH]c2n(CCC)c1=O | – | 0.186 | > 1 | – | – |
| COCCCn1c(=O)c2[nH]c(-c3ccc(OCC(=O)Nc4ccccc4)cc3)cc2n(CCCOC)c1=O | 65 | – | – | 1 | 28 |
| CCCn1c(=O)n(C)c(=O)c2[nH]c(-c3ccc(OCC(=O)N(C)Cc4ccccc4)cc3)cc21 | 32 | – | – | 15 | 15 |
| CCCn1c(=O)c2[nH]c(-c3ccc(N(C=O)CC(=O)O)cc3)cc2n(CCC)c1=O | 40 | – | – | 9 | 9 |
| CCOC(=O)COc1ccc(-c2cc3c([nH]2)c(=O)n(C)c(=O)n3C)c(OC)c1 | 10 | – | 2.19 | – | 11 |
| CCCn1c(=O)c2nc(-c3cc(OCC(=O)c4ccc(F)cc4)nn3C)[nH]c2n(CCC)c1=O | – | 0.0126 | > 1 | – | – |
| CCCn1c(=O)c2[nH]c(-c3ccc(OC(C)(C)C(=O)O)cc3)cc2n(C)c1=O | 50 | – | – | 8 | 3 |
| CCCn1c(=O)c2[nH]c(-c3ccc(OCC(=O)c4ccc(I)cc4)nn3)nc2n(CCC)c1=O | – | > 1 | > 1 | – | – |
| CCCn1c(=O)c2[nH]c(-c3ccc(OCC(=O)c4ccc(I)cc4)cc3)nc2n(CCC)c1=O | – | 0.00214 | 5.89 | – | – |
| CN(C(=O)COc1ccc(-c2cc3c([nH]2)c(=O)n(C)c(=O)n3C)cc1)c1ccccc1 | 61 | – | – | 15 | 0 |
| O=C(O)COc1ccc(-c2cc3c([nH]2)c(=O)n(CC(F)(F)F)c(=O)n3CC(F)(F)F)cc1 | 22 | – | – | 16 | 19 |
| CCCn1c(=O)c2[nH]c(-c3ccc(OCC(=O)Nc4cc(C)ccn4)cc3)cc2n(CCC)c1=O | 60 | – | – | 25 | 34 |
| CCCn1c(=O)c2[nH]c(-c3ccc(OCC(=O)NC(C(=O)O)c4ccccc4)cc3)cc2n(CCC)c1=O (centres undefined) | 45 | – | – | 38 | 3 |

Continued by falling Ki (Adenosine receptor A2b), values first:

| inhibition [1] [%] | Ki (Adenosine receptor A2a [2]) [µM] | Ki (Adenosine receptor A2b) [µM] | inhibition [3] [%] | inhibition (Adenosine receptor A2a [4]) [%] | Compound |
| --- | --- | --- | --- | --- | --- |
| 3 | – | 1.55 | – | 1 | COc1cc(OCC(=O)O)ccc1-c1cc2c([nH]1)c(=O)n(C)c(=O)n2C |
| 8 | 3.72 | 1.51 | – | 18 | CCOC(=O)COc1ccc(-c2cc3c([nH]2)c(=O)n(C)c(=O)n3C)cc1OC |
| 22 | 1.86 | 0.372 | – | 5 | CCOC(=O)COc1ccc(-c2cc3c([nH]2)c(=O)n(C)c(=O)n3CCCOC)cc1 |
| 25 | 1.95 | 0.288 | – | 10 | CCOC(=O)COc1ccc(-c2cc3c([nH]2)c(=O)n(C)c(=O)n3C)cc1 |
| 15 | – | 0.269 | – | 5 | COc1cc(-c2cc3c([nH]2)c(=O)n(C)c(=O)n3C)ccc1OCC(=O)O |
| 35 | 11.5 | 0.214 | – | 11 | COCCCn1c(=O)n(C)c(=O)c2[nH]c(-c3ccc(OCC(=O)O)cc3)cc21 |
| 53 | – | 0.2 | 10 | 37 | CCCn1c(=O)c2[nH]c(-c3ccc(OCC(=O)Nc4ccc(S(N)(=O)=O)cc4)cc3)cc2n(CCC)c1=O |
| 36 | 0.398 | 0.158 | – | 19 | CCCn1c(=O)c2[nH]c(-c3ccc(OCC(=O)O)cc3)c(Cl)c2n(CCC)c1=O |
| 35 | – | 0.132 | 10 | 0 | CCCn1c(=O)c2[nH]c(-c3ccc(OCC(=O)Nc4ccc(CC(=O)OCC)cc4)cc3)cc2n(C)c1=O |
| 47 | 4.17 | 0.123 | – | 14 | Cn1c(=O)c2[nH]c(-c3ccc(OCC(=O)O)cc3)cc2n(C)c1=O |
| 48 | 0.49 | 0.0794 | – | 11 | CCCn1c(=O)c2[nH]c(-c3ccc(OCC(=O)O)cc3)c(Br)c2n(CCC)c1=O |
| 51 | – | 0.0776 | 11 | 13 | CCCn1c(=O)c2[nH]c(-c3ccc(OCC(=O)Nc4ccc(C(=O)c5ccccc5)cc4)cc3)cc2n(CCC)c1=O |
| 66 | 0.933 | 0.0724 | – | 20 | CCn1c(=O)c2[nH]c(-c3ccc(OCC(=O)O)cc3)cc2n(CCCOC)c1=O |
| 57 | 0.447 | 0.0661 | – | 16 | CCOC(=O)COc1ccc(-c2cc3c([nH]2)c(=O)n(CC)c(=O)n3CCCOC)cc1 |
| 51 | 0.776 | 0.0457 | – | 15 | CCCn1c(=O)n(C)c(=O)c2[nH]c(-c3ccc(OCC(=O)O)cc3)cc21 |
| 44 | 1 | 0.0437 | – | 8 | CCCn1c(=O)c2[nH]c(-c3ccc(OC(C)C(=O)O)cc3)cc2n(CCC)c1=O (centres undefined) |

| inhibition [1] [%] | Ki (Adenosine receptor A2a [2]) [µM] | Ki (Adenosine receptor A2b) [µM] | inhibition [3] [%] | inhibition (Adenosine receptor A2a [4]) [%] | Compound |
| --- | --- | --- | --- | --- | --- |
| 63 | 4.07 | 0.0437 | – | 21 | CCCn1c(=O)c2[nH]c(-c3ccc(OCC(=O)O)cc3)cc2n(C)c1=O |
| 83 | 0.309 | 0.0269 | 33 | 34 | CCCn1c(=O)c2[nH]c(-c3ccc(OCC(=O)Nc4ccccn4)cc3)cc2n(CCC)c1=O |
| 80 | 0.0891 | 0.0229 | 17 | 28 | CCCn1c(=O)c2[nH]c(-c3ccc(OCC(=O)Nc4ccc(Cl)cc4)cc3)c(Cl)c2n(CCC)c1=O |
| 76 | – | 0.0204 | 33 | 20 | CCCn1c(=O)c2[nH]c(-c3ccc(OCC(=O)NCc4ccc(Cl)cc4)cc3)cc2n(C)c1=O |
| 62 | – | 0.02 | 24 | 15 | CCCn1c(=O)c2[nH]c(-c3ccc(OCC(=O)Nc4ccc(C(C)=O)cc4)cc3)cc2n(CCC)c1=O |
| 80 | – | 0.02 | 24 | 34 | Cn1c(=O)c2[nH]c(-c3ccc(OCC(=O)Nc4nc5ccccc5[nH]4)cc3)cc2n(C)c1=O |
| 95 | 0.0437 | 0.017 | 36 | 56 | Cn1c(=O)c2[nH]c(-c3ccc(OCC(=O)NCc4ccc(F)cc4)cc3)cc2n(C)c1=O |
| – | 0.123 | 0.0158 | – | – | CCCn1c(=O)c2[nH]c(-c3ccc(OCC(=O)O)cc3)cc2n(CCC)c1=O |
| 81 | – | 0.0141 | 27 | 44 | CCCn1c(=O)c2[nH]c(-c3ccc(OCC(=O)Nc4ccc(C)cc4)cc3)cc2n(CCC)c1=O |
| 93 | 0.112 | 0.00955 | 43 | 24 | CCCn1c(=O)n(C)c(=O)c2[nH]c(-c3ccc(OCC(=O)Nc4ccc(F)cc4)cc3)cc21 |
| – | 0.191 | 0.00794 | – | – | CCCn1c(=O)c2[nH]c(-c3ccc(OCC(=O)Nc4ccc(Cl)cc4)cc3)nc2n(CCC)c1=O |
| 97 | – | 0.00589 | 51 | 24 | CCCn1c(=O)c2[nH]c(-c3ccc(OCC(=O)Nc4ccc(I)cc4)cc3)cc2n(C)c1=O |
| 99 | – | 0.00389 | 76 | 70 | CC(Oc1ccc(-c2cc3c([nH]2)c(=O)n(C)c(=O)n3C)cc1)C(=O)Nc1ccc(F)cc1 (centres undefined) |
| 91 | – | 0.00355 | 65 | 36 | CC(=O)c1ccc(NC(=O)COc2ccc(-c3cc4c([nH]3)c(=O)n(C)c(=O)n4C)cc2)cc1 |
| 95 | 0.0316 | 0.00316 | 58 | 61 | CCCn1c(=O)c2[nH]c(-c3ccc(OCC(=O)Nc4ccc(Cl)cc4)cc3)cc2n(CCC)c1=O |
